Reference: PMC7356587, “Efficacy, Stability, and Safety Evaluation of New Polyphenolic Xanthones Towards Identification of Bioactive Compounds to Fight Skin Photoaging” (Molecules, 2020)
Marks after values point to notes of the source that are not given here.

Assays:
DPPH reduction assay = conditions: for IC50: DPPH reduction, 60 min incubation
Method: The reduction of the stable DPPH free radical was measured by monitoring the change in absorbance at 517 nm. These experiments were made in a 96-well microplate. […] In each experiment, the compounds were tested in the concentration range 0.7812 μM to 50 μM, in triplicate. For each sample concentration, a blank with ethanol 70%, instead of DPPH was made. Ascorbic acid was used as a positive control and tested in the same conditions. Blanks containing only ethanol 70% and control containing DPPH in ethanol 70% (190 μM) were used. The absorbance at 517 nm was measured in a microplate reader BioTek^TM Synergy HT (BioTeck Instruments, Vermont, USA) after 60 min of incubation in the dark with a temperature-controlled holder at 25 °C. The microplate was shaken before each reading.
The scavenging percentage of DPPH was calculated using the following equation:(1) %scavenging of DPPH=100×(1−Abssample+DPPH−Abssample blank/AbsDPPH−AbsEtOH)
The IC50 value for each sample and for the ascorbic acid was obtained by linear regression.

[1] = Solubility in ethanol 70%; type: physicochemical
[2] = Metal-chelating effect by UV/Vis, CuCl2; type: physicochemical; conditions: methanolic solution
Method: (§1) The ultraviolet/visible (UV/Vis) spectra were recorded in methanol using a path length of 1 cm, at room temperature on a Varian CARY100 spectrophotometer (Agilent Technologies, Santa Clara, California, United States) from a range of 200 nm to 500 nm (software CaryWin UV, v. 3.0). The metal-chelating effect was evaluated by described procedures with stock solutions (1.0 × 10^−4 M) in methanol. Iron (III) and copper (II) solutions were prepared in a concentration of 1.0 × 10^−3 M from FeCl3 and CuCl2 in deionized water.

Stability in pH buffers = type: physicochemical; conditions: pH buffers 2-8, 21 days, room temperature, 200 µM
Method: All the solutions were prepared following Portuguese Pharmacopeia 9.0 specifications (F.P. (VIII) 2008). A solution at 10 mM in DMSO of each compound was prepared. One hundred microliters of antioxidant solution were diluted to 5 mL of the different buffered pH solutions, prepared in triplicate. Their absorbance measured by UV/Vis spectrophotometry in the wavelength range between 200 and 500 nm at time intervals of 0, 1, and 2 h and 1, 8, 15, and 21 d at room temperature. Each pH buffer solution was used as a compensation solution.

[3] = UV/Vis absorption spectra; type: physicochemical; conditions: UVB range 280–320 nm
Method: as §1

[4] = Metal-chelating effect by UV/Vis, FeCl3; type: physicochemical; conditions: methanolic solution
Method: as §1

collagenase = experiment: Collagenase inhibition assay; type: biochemical
Method: An adaptation of the method of Moore and Stein [40] with modifications by Mandl et al. was used to determine anticollagenase activity. To 2 mL test tubes was added: 25 μL of collagenase solution (0.8 U/mL), 25 μL TES buffer (50 mM) with 0.36 mM calcium chloride (pH 7.4) and 50 μL of test sample or the reference compound EDTA (with concentrations ranging between 9.4 and 150 μM). The tubes were incubated in a water bath at 37 °C for 20 min. Thereafter, 50 μL FALGPA (1 mM) solution was added to the tubes and incubated further for 60 min at 37 °C. To all tubes, 200 μL of a solution containing equal volumes of a 1.6 mg/mLTin chloride (II) solution in 200 mM citrate buffer (pH 5) and 50 mg/mL ninhydrin solution in DMSO was added. All tubes were placed in a water bath (100 °C) for 5 min and left to cool to room temperature before adding 200 μL of 50% isopropanol to each tube. Contents in the tubes were then transferred to respective wells in 96-well plates.

hyaluronidase = system: hyaluronidase
Method: The methods described by Ndlovu et al. and Zhou et al. were applied for the hyaluronidase inhibition assay. Into 2 mL test tubes was placed: 50 μL of calcium chloride (12.5 mM), 50 μL of test samples or sodium aurothiomalate diluted in 0.1 M acetate buffer; pH 3.5 (with concentrations ranging between 9.4 and 150 μM), and 25 μL hyaluronidase (0.5 mg/mL). The tubes were incubated in a water bath (37 °C; 20 min) after which 50 μL of the substrate hyaluronic acid (0.25 mg/mL in 0.1 M acetate buffer; pH 3.5) was added and the tubes incubated for further 40 min. Twenty-five microliters of KBO2 • 4 H2O (0.8 M) was added to all tubes which were placed in a water bath (100 °C) for 3 min, left to cool to room temperature, and 800 μL of DMAB (4 g DMAB in 40 mL acetic acid and 5 mL 10 N HCl) was added. The tubes were then incubated for 20 min and the contents transferred to respective wells in a 96-well plate. Absorbance was detected at 585 nm in a Bio-Rad Model 680 Microplate Reader (Bio-Rad Laboratories, Inc., Hercules, CA, USA). Percentage of hyaluronidase inhibition was calculated as:(3) % hyaluronidase inhibition =Abscontrol−Abssample/Abscontrol×100 where Abscontrol is the absorbance of buffer + hyaluronidase; Abssample is the absorbance of buffer + hyaluronidase + sample/standard.

HaCaT cell = system: HaCaT cell; parameters: method as in doi:10.1016/j.arabjc.2017.01.006, PMID 31167479; conditions: cited from earlier work
HaCaT cells = experiment: Phototoxicity evaluation, HaCaT NRU assay; type: cell-based, human
Method: The HaCaT cells were maintained at 37 °C in a humidified atmosphere of 95% air and 5% CO2 in the incubator in dulbecco’s modified eagle’s medium (DMEM) with 10% fetal bovine serum (FBS) and 1% antibiotics. Using an inverted microscope, cell confluence was observed and if the cells reached 70–80% confluence, subculture was done to prevent cell death. For this purpose, the culture medium was aspirated and the cells were washed with dulbecco’s phosphate buffered saline (DPBS), 2 mL of trypsin-EDTA were added and incubated for 5–8 min at 37 °C in a 5% CO2 atmosphere. After cell detaching, medium was added in order to block the trypsin action and cell suspension was centrifuged at 416 g for 5 min. The supernatant was discarded, the pellet suspended in culture medium, and cells were counted. For cell counting: 50 μL of cell suspension were added to 50 μL of Trypan Blue vital dye […], resuspended, placed in a Neubauer chamber (Hirschmann, Germany) and the viable cells were counted. For cell freezing, DMSO (5% v/v) was used as a cryopreservative to prevent the formation of crystals during the storage phase.
HaCaT cells were seeded onto 96-well tissue culture plates (Orange Scientific, Braine-l’Alleud, Belgium) at a 2 × 10^4 cells/well density and incubated at 37 °C in a 5% CO2 atmosphere for 24 h. […] In this last step, the absorbance was measured at 540 nm. […]

| Compound | maximum reduction activity (DPPH reduction assay; DPPH, IC50 not determinable, probably due to solubility issues) | solubility [1] | IC50 (DPPH reduction assay) [µM] | change of UV/Vis spectrum on sequential additions of CuCl2 [2] | pH stability (Stability in pH buffers) | capacity to absorb UV radiation [3] | change of UV/Vis spectrum on sequential additions of FeCl3 [4] | Collagenase % Inhibition (150 µM) (collagenase) | Hyaluronidase % Inhibition (150 μM) (hyaluronidase) | decrease in HaCaT cell viability in the neutral red assay (HaCaT cell) [%] | cytotoxic effect (HaCaT cell; up to 50 µM, MTT, neutral red, Alamar Blue, Trypan Blue assays) | cytotoxicity to HaCaT cells (HaCaT cells; 12.5-200 µM, with and without UVA irradiation, NRU) | phototoxicity (HaCaT cells; up to 200 µM, HaCaT NRU assay) |
| --- | --- | --- | --- | --- | --- | --- | --- | --- | --- | --- | --- | --- | --- |
| COc1cc(O)c2c(=O)c3ccccc3oc2c1O [Compound 4, 1,4-dihydroxy-3-methoxy-9H-xanthen-9-one] | lower than 50% | low solubility |  |  |  |  |  |  |  |  |  |  |  |
| O=C1O[C@H]([C@@H](O)CO)C(O)=C1O [Ascorbic Acid, Ascorbic acid, reference compound] |  |  | 40 ± 0.8 |  |  |  |  |  |  |  |  |  |  |
| Cc1cc(O)c(O)c2oc3ccccc3c(=O)c12 [Compound 2, 3,4-dihydroxy-1-methyl-9H-xanthen-9-one] |  |  | 31.2 ± 4.8 | no effect was observed | a degradation of the compound for the range of pH tested overtime is observed | high absorbance in the UVB range | bathochromic shifts were observed | 26.83 ± 1.45 ^b % | n.a. (Not active (0% inhibition)) |  |  |  |  |
| O=c1c2ccccc2oc2ccc(O)c(O)c12 [Compound 1, 1,2-dihydroxy-9H-xanthen-9-one] |  |  | 28.4 ± 0.2 | bathochromic shifts | more stable in the pH range that is closest to the pH of the skin | high absorbance in the UVB range | bathochromic shifts | 35.77 ± 1.82 ^a % | n.a. (Not active (0% inhibition)) | 83 | did not promote a significant cytotoxic effect | not cytotoxic | nonphototoxic |
| Cc1cc(O)c(O)c2oc3cc(O)ccc3c(=O)c12 [Compound 3, 3,4,6-trihydroxy-1-methyl-9H-xanthen-9-one] |  |  | 47.3 ± 0.4 | no effect was observed |  | high absorbance in the UVB range | bathochromic shifts were observed |  | n.a. (Not active (0% inhibition)) |  |  |  |  |
